Literature values as cited in patent publication US20040180103A1, “Use of plants of the genus hypericum for facilitating the synchronization of a circadian rhythm” (priority 2001, published 2004).

Test system: circadian rhythms in Siberian hamsters
Settings: 5 h phase shift under daily administration

In the case of COc1ccc2[nH]cc(CCNC(C)=O)c2c1 [melatonin], the “share of animals that adapt to the new light-dark cycle” value is listed as 71%.
